Legend:
Rat [1] = assay: concentration in plasma after dosing
Rat [2] = assay: concentration in plasma after dosing; details: dosed: 678-39-7, 12 mg/kg, iv, Male, F344
Rat [3] = assay: concentration in kidney after dosing; details: oral

O=C(O)C(F)(F)C(F)(F)C(F)(F)C(F)(F)C(F)(F)C(F)(F)C(F)(F)F [Perfluorooctanoic acid]
Details | concentration in kidney [ng/g] | concentration in plasma [ng/mL]
Rat [1], 0.75 h, dosed: 678-39-7, 40 mg/kg, iv, Female, Harlan Sprague-Dawley | – | 1860
Rat [1], 0.75 h, dosed: Fluorotelomer alcohol 8+2, 12 mg/kg, oral, Male, Harlan Sprague Dawley | – | 159
Rat [1], 1 h, dosed: 678-39-7, 12 mg/kg, iv, Male, F344 | – | 396
Rat [1], 1 h, dosed: 678-39-7, 40 mg/kg, iv, Female, Harlan Sprague-Dawley | – | 2280
Rat [1], 3 h, dosed: 678-39-7, 12 mg/kg, iv, Male, F344 | – | 478
Rat [1], 3 h, dosed: 678-39-7, 40 mg/kg, iv, Male, F344 | – | 2030
Rat [1], 3 h, dosed: Fluorotelomer alcohol 8+2, 12 mg/kg, oral, Male, Harlan Sprague Dawley | – | 423
Rat [1], 6 h, dosed: 678-39-7, 12 mg/kg, iv, Male, F344 | – | 630
Rat [1], 6 h, dosed: Fluorotelomer alcohol 8+2, 12 mg/kg, oral, Male, Harlan Sprague Dawley | – | 634
Rat [1], 9 h, dosed: 678-39-7, 12 mg/kg, iv, Male, F344 | – | 607
Rat [1], 9 h, dosed: 678-39-7, 40 mg/kg, iv, Female, Harlan Sprague-Dawley | – | 622
Rat [1], 9 h, dosed: 678-39-7, 40 mg/kg, iv, Male, F344 | – | 702
Rat [1], 9 h, dosed: Fluorotelomer alcohol 8+2, 12 mg/kg, oral, Male, Harlan Sprague Dawley | – | 578
Rat [1], 12 h, dosed: 678-39-7, 12 mg/kg, iv, Male, F344 | – | 364
Rat [1], 12 h, dosed: 678-39-7, 40 mg/kg, iv, Female, Harlan Sprague-Dawley | – | 353
Rat [1], 12 h, dosed: 678-39-7, 40 mg/kg, iv, Male, F344 | – | 12300
Rat [1], 12 h, dosed: Fluorotelomer alcohol 8+2, 12 mg/kg, oral, Male, Harlan Sprague Dawley | – | 507
Rat [1], 24 h, dosed: 678-39-7, 12 mg/kg, iv, Male, F344 | – | 460
Rat [1], 24 h, dosed: 678-39-7, 40 mg/kg, iv, Female, Harlan Sprague-Dawley | – | 52.2
Rat [1], 48 h, dosed: Fluorotelomer alcohol 8+2, 12 mg/kg, oral, Male, Harlan Sprague Dawley | – | 536
Rat [1], 192 h, dosed: 678-39-7, 12 mg/kg, iv, Male, F344 | – | 260
Rat [1], 192 h, dosed: Fluorotelomer alcohol 8+2, 12 mg/kg, oral, Male, Harlan Sprague Dawley | – | 356
Rat [3], 3 h, dosed: Perfluorooctanoic acid, 12 mg/kg, Male, Harlan Sprague Dawley | 42500 | –
Rat [3], 3 h, dosed: Perfluorooctanoic acid, 80 mg/kg, Female, Harlan Sprague Dawley | 70300 | –
Rat [3], 6 h, dosed: Perfluorooctanoic acid, 12 mg/kg, Male, Harlan Sprague Dawley | 25600 | –
Rat [3], 6 h, dosed: Perfluorooctanoic acid, 80 mg/kg, Female, Harlan Sprague Dawley | 263000 | –
Rat [3], 12 h, dosed: Perfluorooctanoic acid, 12 mg/kg, Male, Harlan Sprague Dawley | 36200 | –
Rat [3], 12 h, dosed: Perfluorooctanoic acid, 80 mg/kg, Female, Harlan Sprague Dawley | 61600 | –
Rat [3], 24 h, dosed: Perfluorooctanoic acid, 12 mg/kg, Male, Harlan Sprague Dawley | 30400 | –
Rat [3], 24 h, dosed: Perfluorooctanoic acid, 80 mg/kg, Female, Harlan Sprague Dawley | 11600 | –
Rat [3], 48 h, dosed: Perfluorooctanoic acid, 80 mg/kg, Female, Harlan Sprague Dawley | 541 | –
Rat [3], 192 h, dosed: Perfluorooctanoic acid, 12 mg/kg, Male, Harlan Sprague Dawley | 20300 | –
Rat [3], 528 h, dosed: Perfluorooctanoic acid, 12 mg/kg, Male, Harlan Sprague Dawley | 3900 | –
Rat [3], 528 h, dosed: Perfluorooctanoic acid, 12 mg/kg, Male, Harlan Sprague Dawley - this seems too small | 6140 | –
Rat [3], 1200 h, dosed: Perfluorooctanoic acid, 12 mg/kg, Male, Harlan Sprague Dawley | 574 | –

Rat [2]
Details | concentration in plasma [ng/mL]
0.5 h | 235
9 h | 438

concentration in kidney [ng/g], Rat [3], Harlan Sprague Dawley
Details | 0.5 h | 1 h | 3 h | 6 h | 12 h
dosed: Fluorotelomer alcohol 8+2, 24 mg/kg, Male | – | 190 | 270 | 243 | 419
dosed: Fluorotelomer alcohol 8+2, 80 mg/kg, Female | 284 | 677 | 1260 | 2480 | 874

— EPA's CvTdb concentration-time database
